{"source": "patent US10828276B2", "about": "“Combination therapeutics and methods for the treatment of neurodegenerative and other diseases” (APHIOS CORPORATION, priority 2012, dated 2020)", "key": {"ADAM10": {"system": "ADAM10", "test": "ADAM10 expression in SH-SY5Y cells", "assay_type": "cell-based", "settings": "single agents", "excerpt": "Therefore, Bryostatin-1 may increase […]-secretase processing through 2 independent mechanisms: (i) activation of PKCs which stimulate[…]secretase; and (ii) increased expression of […]-secretase."}, "[1]": {"system": "Alzheimer's disease mediated memory loss", "test": "Water maze studies in sweAPP/PS1 mice", "assay_type": "in vivo, Mouse strain B6C3-Tg", "excerpt": "Mouse strain B6C3-Tg carrying mutant Swedish Amyloid precursor protein (sweAPP) and PS1 (presenilin-1) genes associated with early onset Alzheimer's disease were subjected to water maze tests at 5-6 months of age."}, "[2]": {"system": "SH-SY5Y neuroblastoma cells", "test": "sAPP-a release from SH-SY5Y cells (6E10 western blot, densitometry)", "assay_type": "cell-based", "procedure": "Cells were treated with RA, Bryostatin-1 (10^−9M)+RA, Bryostatin-1 (10^−10M), RA+Bryostatin-1 (10^−10M) for 3 h."}}, "data": [{"smiles": "CCC/C=C/C=C/C(=O)O[C@H]1/C(=C/C(=O)OC)C[C@H]2C[C@H]([C@@H](C)O)OC(=O)C[C@H](O)C[C@@H]3C[C@H](OC(C)=O)C(C)(C)[C@](O)(C[C@@H]4C/C(=C/C(=O)OC)C[C@H](/C=C/C(C)(C)[C@]1(O)O2)O4)O3", "note": "[Bryostatin-1]", "values": [{"measurement": "expression of ADAM10", "setting": "ADAM10", "value": "significantly increase"}, {"measurement": "protection against Alzheimer's disease mediated memory loss (water maze)", "setting": "[1]; 5 micrograms/mouse on alternative days orally in an oil formulation, mice 5-6 months of age, vs control animals", "value": "significant protection"}, {"measurement": "memory and cognition in AD model", "setting": "[1]; our AD model", "value": "enhance memory and cognition"}, {"measurement": "sAPP formation", "setting": "[2]; 10^−9M Bryostatin-1 alone", "value": "increased"}, {"measurement": "activity of alpha-secretase", "setting": "[2]; SH-SY5Y neuroblastoma cells", "value": "potently stimulate"}, {"measurement": "sAPPa recovered from culture medium compared to control", "setting": "[2]; single agents, RA 2 μM, Bryostatin-1 10^−10M, 3 h, p<0.05, p<0.01", "value": "significantly increased"}]}]}
